In patent publication US11389544B2, “Formation of functionalized cancer targeting nanoparticles by supramolecular co-assembly” (RAMOT AT TEL-AVIV UNIVERSITY LTD., priority 2016, dated 2022):

System: human pancreatic cancer cells (Panc-1)
Experiment: Live cell imaging by confocal microscopy, binding/uptake to Panc-1 cells
Format: cell-based
Conditions: Panc-1, 2 h incubation, carboxyfluorescein loaded
Protocol: Carboxyfluorescein was encapsulated during the preparation of the nanoparticles. Following two hours of incubation with Panc-1 cancer cells, the cells were treated with concanavalin A (Con A) Alexa Fluor 647 conjugate. Live cell imaging analysis was performed by confocal microscopy (FIGS. 8 and 13). […] These findings support the proposed model for the co-assembly of the two peptides. As assumed, the co-assembly with Boc-FF which serves as a spacer, enabled the binding of PTR analog to the somatostatin receptor (FIG. 2b).
Panc-1 and HEK-293T cells were cultured (100,000 cells) on a cell culture dish with a glass bottom (35 mm, Greiner Bio-one). In the following day cells were incubated for two hours at 37° C. under various conditions: carboxyfluorescein (15 μM), Boc-FF (0.12 mM) and carboxyfluorescein (15 μM), Fmoc-FF-PEG2-PTR (0.3 mM) encapsulated with carboxyfluorescein (15 μM), PTR-3207-86 (0.3 mM), Fmoc-FF-PEG2-PTR (0.3 mM):Boc-FF (1:4) nanospheres encapsulated with carboxyfluorescein (15 μM). After incubation, cells were washed with PBS buffer and were treated with 10 μg/ml Concanavalin A (Con A) Alexa Fluor 647 Conjugate (Invitrogen, Carlsbad, Calif.) for 15 minutes and washed again with PBS. Live cell imaging was conducted using LSM 510 Meta confocal laser scanning microscope (Carl Zeiss, Jena, Germany).

For carboxyfluorescein, the “fluorescence observed in cells (binding/uptake)” value was “No fluorescence was observed”.
